Test results reported in US12662489B2 (Sitryx Therapeutics Limited, priority 2023, dated 2026).

Assays:
[1] = target: T1, MTHFD1 recombinant human enzyme (Homo sapiens, UniProt P11586); assay: MTHFD1 inhibition assay (NAD(P)H-Glo luminescence); conditions: MTHFD1 IC50, recombinant human enzyme 200 nM, NADP, band
T1 sequence (P11586 2-291 limits assumed): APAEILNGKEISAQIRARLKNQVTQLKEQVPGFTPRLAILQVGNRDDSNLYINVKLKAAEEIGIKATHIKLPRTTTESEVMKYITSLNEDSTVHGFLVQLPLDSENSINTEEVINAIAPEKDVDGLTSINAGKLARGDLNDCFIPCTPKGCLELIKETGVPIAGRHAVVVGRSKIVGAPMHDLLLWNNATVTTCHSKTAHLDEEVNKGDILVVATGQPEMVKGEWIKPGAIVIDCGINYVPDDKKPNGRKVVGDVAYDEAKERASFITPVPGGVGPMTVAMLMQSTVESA

[2] = target: T2, MTHFD2 recombinant human enzyme (Homo sapiens, UniProt P13995); assay: MTHFD2 inhibition assay (NAD(P)H-Glo luminescence); conditions: for MTHFD1/MTHFD2 IC50 ratio: selectivity of MTHFD2 inhibition over MTHFD1, band
T2 sequence (P13995 36-350): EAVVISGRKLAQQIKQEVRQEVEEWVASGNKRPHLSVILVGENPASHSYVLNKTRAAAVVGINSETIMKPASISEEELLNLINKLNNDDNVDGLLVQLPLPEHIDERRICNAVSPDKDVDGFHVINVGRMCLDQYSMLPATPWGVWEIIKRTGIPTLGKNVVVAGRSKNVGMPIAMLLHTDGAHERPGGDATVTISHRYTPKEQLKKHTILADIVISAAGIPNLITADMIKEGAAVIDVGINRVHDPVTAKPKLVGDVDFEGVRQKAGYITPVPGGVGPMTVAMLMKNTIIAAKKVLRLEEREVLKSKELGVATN

SMILES	IC50 [1]	IC50 [2]	MTHFD1/MTHFD2 IC50 ratio [2]
COC[C@H]1CN(c2ccc3c4c(c(=O)oc3c2C)CN(C(=O)c2ccc(C(=O)NS(=O)(=O)N(C)C(C)C)c(OC3CCC3)c2F)CC4)CCN1C [Example 56, (R)-2-cyclobutoxy-3-fluoro-N-(N-isopropyl-N-methylsulfamoyl)-4-(8-(3-(methoxymethyl)-4-methylpiperazin-1-yl)-7-methyl-5-oxo-1,3,4,5-tetrahydro-2H-chromeno[3,4-c]pyridine-3-carbonyl)benzamide]	1 to 10 nM	1 to 10 nM	F (<3)
COC[C@H]1CN(c2cc(C)c3c4c(c(=O)oc3c2C)CN(C(=O)c2cc(N3CCCC3)c(C(=O)NS(=O)(=O)N3CCCC3)cc2F)CC4)CCN1C [Example 141, (R)-5-fluoro-4-(8-(3-(methoxymethyl)-4-methylpiperazin-1-yl)-7,10-dimethyl-5-oxo-1,3,4,5-tetrahydro-2H-chromeno[3,4-c]pyridine-3-carbonyl)-2-(pyrrolidin-1-yl)-N-(pyrrolidin-1-ylsulfonyl)benzamide]	10 to 100 nM	10 to 100 nM	F (<3)
COC[C@H]1CN(c2cc(Cl)c3c4c(c(=O)oc3c2C)CN(C(=O)c2cc(N(C)C)c(C(=O)NS(=O)(=O)N3CC[C@H](OC)C3)cc2F)CC4)CCN1C [Example 284, 4-(10-chloro-8-((R)-3-(methoxymethyl)-4-methylpiperazin-1-yl)-7-methyl-5-oxo-1,3,4,5-tetrahydro-2H-chromeno[3,4-c]pyridine-3-carbonyl)-2-(dimethylamino)-5-fluoro-N-(((S)-3-methoxypyrrolidin-1-yl)sulfonyl)benzamide]	100 to 1000 nM	10 to 100 nM	H (>9.0 to 30)
COC[C@H]1CN(c2cc(C)c3c4c(c(=O)oc3c2)CN(C(=O)c2ccc(C(=O)NS(=O)(=O)N3CCCC3)c(OC3CCCC3)c2F)CC4)CCN1C [Example 187, (R)-2-(cyclopentyloxy)-3-fluoro-4-(8-(3-(methoxymethyl)-4-methylpiperazin-1-yl)-10-methyl-5-oxo-1,3,4,5-tetrahydro-2H-chromeno[3,4-c]pyridine-3-carbonyl)-N-(pyrrolidin-1-ylsulfonyl)benzamide]	> 5000 nM	100 to 1000 nM	H (>9.0 to 30)
COC[C@H]1CN(c2ccc3c4c(c(=O)oc3c2C)CN(C(=O)c2ccc(C(=O)NS(=O)(=O)N(C)C(C)C)c(N3CCCC3)c2)CC4)CCN1C [Example 31, (R)-N-(N-isopropyl-N-methylsulfamoyl)-4-(8-(3-(methoxymethyl)-4-methylpiperazin-1-yl)-7-methyl-5-oxo-1,3,4,5-tetrahydro-2H-chromeno[3,4-c]pyridine-3-carbonyl)-2-(pyrrolidin-1-yl)benzamide]	10 to 100 nM	1 to 10 nM	G (^ 3 to 9.0)
COC[C@H]1CN(c2ccc3c4c(c(=O)oc3c2C)CN(C(=O)c2ccc(C(=O)NS(=O)(=O)N3CCCC3)c(OC3C[C@@H]5C[C@@H]5C3)c2)CC4)CCN1C (mixture of isomers) [Example 114, 2-(bicyclo[3.1.0]hexan-3-yloxy)-4-(8-((R)-3-(methoxymethyl)-4-methylpiperazin-1-yl)-7-methyl-5-oxo-1,3,4,5-tetrahydro-2H-chromeno[3,4-c]pyridine-3-carbonyl)-N-(pyrrolidin-1-ylsulfonyl)benzamide]	10 to 100 nM	100 to 1000 nM	F (<3)
COC[C@H]1CN(c2ccc3c4c(c(=O)oc3c2Cl)CN(C(=O)c2ccc(C(=O)NS(=O)(=O)N3CCCC3)c(OC3CCC3)c2F)CC4)CCN1C [Example 53, (R)-4-(7-chloro-8-(3-(methoxymethyl)-4-methylpiperazin-1-yl)-5-oxo-1,3,4,5-tetrahydro-2H-chromeno[3,4-c]pyridine-3-carbonyl)-2-cyclobutoxy-3-fluoro-N-(pyrrolidin-1-ylsulfonyl)benzamide]	1 to 10 nM	10 to 100 nM	F (<3)
COC[C@H]1CN(c2ccc3c4c(c(=O)oc3c2C)CN(C(=O)c2cc(F)c(C(=O)NS(=O)(=O)N(C)C)c(N3C5CCC3CC5)c2)CC4)CCN1C [Example 23, (R)-2-(7-azabicyclo[2.2.1]heptan-7-yl)-N-(N,N-dimethylsulfamoyl)-6-fluoro-4-(8-(3-(methoxymethyl)-4-methylpiperazin-1-yl)-7-methyl-5-oxo-1,3,4,5-tetrahydro-2H-chromeno[3,4-c]pyridine-3-carbonyl)benzamide]	1 to 10 nM	1 to 10 nM	F (<3)
COC[C@H]1CN(c2cc(C)c3c4c(c(=O)oc3c2C)CN(C(=O)c2ccc(C(=O)NS(=O)(=O)C3(C)CC3)c(N3CCCC(F)(F)C3)c2F)CC4)CCN1C [Example 76, (R)-2-(3,3-difluoropiperidin-1-yl)-3-fluoro-4-(8-(3-(methoxymethyl)-4-methylpiperazin-1-yl)-7,10-dimethyl-5-oxo-1,3,4,5-tetrahydro-2H-chromeno[3,4-c]pyridine-3-carbonyl)-N-((1-methylcyclopropyl)sulfonyl)benzamide]	10 to 100 nM	1 to 10 nM	
COC[C@H]1CN(c2cc(C)c3c4c(c(=O)oc3c2C)CN(C(=O)c2cc(OC3CCCC3)c(C(=O)NS(=O)(=O)N3CCCC3)cc2F)CC4)CCN1C [Example 111, (R)-2-(cyclopentyloxy)-5-fluoro-4-(8-(3-(methoxymethyl)-4-methylpiperazin-1-yl)-7,10-dimethyl-5-oxo-1,3,4,5-tetrahydro-2H-chromeno[3,4-c]pyridine-3-carbonyl)-N-(pyrrolidin-1-ylsulfonyl)benzamide]	10 to 100 nM	10 to 100 nM	F (<3)

Further lines, results first:

IC50 [1]	IC50 [2]	MTHFD1/MTHFD2 IC50 ratio [2]	SMILES
100 to 1000 nM	10 to 100 nM	F (<3)	COC[C@H]1CN(c2cc(C)c3c4c(c(=O)oc3c2C)CN(C(=O)c2ccc(C(=O)NS(=O)(=O)N(C)C)c(N3CCCC5(CC5)C3)c2)CC4)CCN1C [Example 120, (R)-N-(N,N-dimethylsulfamoyl)-4-(8-(3-(methoxymethyl)-4-methylpiperazin-1-yl)-7,10-dimethyl-5-oxo-1,3,4,5-tetrahydro-2H-chromeno[3,4-c]pyridine-3-carbonyl)-2-(5-azaspiro[2.5]octan-5-yl)benzamide]
10 to 100 nM	1 to 10 nM	J (>30)	CCOc1cc(C(=O)N2CCc3c(c(=O)oc4c(C)c(N5CCN(C)[C@@H](COC)C5)cc(C)c34)C2)c(F)cc1C(=O)NS(=O)(=O)N(C)C1CC1 [Example 269, (R)-N-(N-cyclopropyl-N-methylsulfamoyl)-2-ethoxy-5-fluoro-4-(8-(3-(methoxymethyl)-4-methylpiperazin-1-yl)-7,10-dimethyl-5-oxo-1,3,4,5-tetrahydro-2H-chromeno[3,4-c]pyridine-3-carbonyl)benzamide]
100 to 1000 nM	10 to 100 nM	H (>9.0 to 30)	COC[C@H]1CN(c2cc(C)c3c4c(c(=O)oc3c2C)CN(C(=O)c2cc(OC3CCCC3)c(C(=O)NS(=O)(=O)N(C)C)c(N3CCCC3)c2)CC4)CCN1C [Example 127, (R)-2-(cyclopentyloxy)-N-(N,N-dimethylsulfamoyl)-4-(8-(3-(methoxymethyl)-4-methylpiperazin-1-yl)-7,10-dimethyl-5-oxo-1,3,4,5-tetrahydro-2H-chromeno[3,4-c]pyridine-3-carbonyl)-6-(pyrrolidin-1-yl)benzamide]
10 to 100 nM	10 to 100 nM		COC[C@H]1CN(c2cc(C)c3c4c(c(=O)oc3c2C)CN(C(=O)c2ccc(C(=O)NS(=O)(=O)N(C)C)c(OC3C5CC6CC(C5)CC3C6)c2F)CC4)CCN1C (stereo partly drawn) [Example 90, 2-((adamantan-2-yl)oxy)-N-(N,N-dimethylsulfamoyl)-3-fluoro-4-(8-((R)-3-(methoxymethyl)-4-methylpiperazin-1-yl)-7,10-dimethyl-5-oxo-1,3,4,5-tetrahydro-2H-chromeno[3,4-c]pyridine-3-carbonyl)benzamide]
1 to 10 nM	1 to 10 nM	F (<3)	COC[C@H]1CN(c2cc(C)c3c4c(c(=O)oc3c2C)CN(C(=O)c2ccc(C(=O)NS(=O)(=O)N(C)C)c(O[C@@H]3C[C@@H]5C[C@@H]5C3)c2F)CC4)CCN1C [Example 11, 2-(((1R,3r,5S)-bicyclo[3.1.0]hexan-3-yl)oxy)-N-(N,N-dimethylsulfamoyl)-3-fluoro-4-(8-((R)-3-(methoxymethyl)-4-methylpiperazin-1-yl)-7,10-dimethyl-5-oxo-1,3,4,5-tetrahydro-2H-chromeno[3,4-c]pyridine-3-carbonyl)benzamide]
1 to 10 nM	1 to 10 nM	F (<3)	COC[C@H]1CN(c2cc(C)c3c4c(c(=O)oc3c2C)CN(C(=O)c2cc(F)c(C(=O)NS(=O)(=O)N(C)C)c(N3CC5CC5C3)c2)CC4)CCN1C (stereo partly drawn) [Example 28, 2-(3-azabicyclo[3.1.0]hexan-3-yl)-N-(N,N-dimethylsulfamoyl)-6-fluoro-4-(8-((R)-3-(methoxymethyl)-4-methylpiperazin-1-yl)-7,10-dimethyl-5-oxo-1,3,4,5-tetrahydro-2H-chromeno[3,4-c]pyridine-3-carbonyl)benzamide]
